Experimental data as given in patent publication US7582638B2, “Pyrazole-isoquinoline urea derivatives as p38 kinase inhibitors” (Eli Lilly and Company, priority 2005, dated 2009).

Tests used:
Oral exposure = format: in vivo; details: rat, 1 mg/kg, male Fischer 344 rats, fasted, gavage, suspension 1 mg/mL at 1 mL/kg, plasma
Method: Compounds are screened for oral exposure in male Fischer 344 rats. Animals are fasted overnight and administered test compounds prepared as suspensions in sodium carboxymethylcellulose (1% w/v) containing Tween 80 (0.25% v/v) and antifoam (0.1% w/v). Dose suspensions are prepared at 1 mg/mL and administered at 1 mL/kg by gavage. Blood samples are taken between 0.5 h and 7 h after dose administration and plasma are prepared by centrifugation. Plasma samples are analyzed using online solid phase extraction and LC/MS/MS.

p-MAPKAPK2 = experiment: Anisomycin-stimulated mice ex-vivo phospho-MAPKAPK2 inhibition assay by flow cytometry; format: in vivo; details: female Balb/c mice, po, blood after 2 hours, ex vivo anisomycin 10 μg/ml, CD11b+Ly6G- cells
Method: Female Balb/c mice with 8-10 week-old age are purchased from Taconic Inc. and dosed po with 0.2 mL volume of compounds at the concentrations of 30, 10, 3, 1 mg/kg. Blood is obtained from cardiac puncture after 2 hours or other indicated time periods and collected in EDTA-containing tubes. 100 μL of blood is incubated at 37° C. for 10 minutes. Whole blood is then mixed with FITC-conjugated rat anti-mouse Ly-6G mAb (1:250) and APC-conjugated rat anti-mouse CD11b mAb (1:100) and stimulated with 10 μg/ml anisomycin. Both cell surface antigen staining and anisomycin stimulation is conducted at 37° C. for 15 min and followed up with Lyse/Fix buffer (BD Biosciences, Cat# 558049) for 10 min at room temperature. Lysed blood samples are spun down at 600×g for 8 minutes at room temperature with additional wash once by 4 mL PBS. 200 μL of diluted anti-Phospho-MAPKAPK-2 (Thr334) antibody (1:100 dilution) (Cell Signaling, Cat# 3041) and mouse BD Fc Block (1:100 dilution) (BD Biosciences, 553141) in permeabilization Medium B (Caltag, Cat# GAS002S-5) are added into blood cells and incubate at room temperature for 30 min. After the incubation, 3 mL of stain/wash buffer is added and cells are spanned down as described above with additional wash with 3 ml stain/wash buffer. […] Mean fluorescence of phosphono-MapKap-K2 staining is measured on gated CD11b+Ly6G-cells. […]

pMAPKAPK2 = experiment: Inhibition of p-MAPKAPK2 in vitro (anisomycin-stimulated RAW 264.7 cells, ELISA); format: cell-based, murine; details: Mus musculus, RAW264.7, 2 hours compound, anisomicin 100 ug/ml 30 minutes, read-out: IC50, inhibition of pMAPKAPK2 enzyme production
Method: RAW 264.7 cells (a murine monocytic/macrophage line ATCC) are seeded at a density of 50,000 cells/well in 96-well plates with RPMI-1640 medium plus 10% fetal bovine serum (FBS) and allowed to settle and adhere to the bottom of the well for 48 hours. After reaching confluence, cells are treated for 2 hours with 10 serial dilutions of different compounds. A control compound is always included. After 2 hours, anisomicin (100 ug/ml) is added and cells are incubated for 30 minutes at 37° C. under a 5% CO2 atmosphere. Then, cells are fixed and treated with hydrogen peroxide in order to remove endogenous peroxidase. Finally, plates are blocked with FBS, washed, and an ELISA assay is carried out by using an antiphospho-MAPKAPK2 (Thr 334, Cell Signalling, Cat # 3041) antibody and ahP-Conjugated Secondary Antibody. This reaction is detected by using FEMTO (Pierce) which is an enhanced chemiluminiscent substrate ahP that results in rapid kinetic light output and high signal intensity. The compound exemplified in Example 12 is tested essentially as described above and is found to inhibit the pMAPKAPK2 enzyme production with an IC50 of 7 nM.

TNFα = experiment: Inhibition of TNFα in vivo (LPS challenge, plasma TNFα ELISA); details: female Balb/c mice, p.o., LPS 400 μg/kg IP 1 hour after compound, plasma 1.5 hours after LPS
Method: Compounds are administered p.o. (30, 10, 3 and 1 mg/kg) to female Balb/c mice (6 mice/dose). 1 hour following compound administration at 4 doses (P.O. at volume of 0.1 mL/mouse; vehicle: 1% NaCMC/0.25% Tween-80 in water); mice are given an IP-injection of LPS at 400 μg/kg. 1.5 hours after LPS challenging, mice are anesthetized with isoflurane and blood is taken via cardiac puncture. TNFa-levels in the plasma are determined using ELISA kit from R&D Systems and dose response ED50 is determined.
The compound exemplified in Example 12 is tested essentially as described above and suppressed TNFα in vivo with an TMED50 of 1.0 mg/kg. The Threshold Minimum Effective Dose (TMED) 50 is the dose at which greater than or equal to 50% inhibition was achieved and statistically different from control/placebo.

CS(=O)(=O)O.Cc1ccc(-n2nc(C3(C)CC3)cc2NC(=O)Nc2cnc(OC3CCN(C(=O)C4(C)CC4)CC3)c3ccccc23)cc1 [Example 12, 1-{1-[1-(1-Methyl-cyclopropanecarbonyl)-piperidin-4-yloxy]-isoquinolin-4-yl}-3-[5-(1-methyl-cyclopropyl)-2-p-tolyl-2H-pyrazol-3-yl]-urea mesylate]
Cmax (Oral exposure): 9390 ng/mL | AUC(0-t) (Oral exposure; read-out: AUC (0-7 h)): 36800 ng·h/mL | TMED50, inhibition of p-MAPKAPK2 synthesis (p-MAPKAPK2): 2.20 mg/kg | IC50 (pMAPKAPK2): 7 nM | TMED50, suppression of TNFα in vivo (TNFα): 1.0 mg/kg
